Molecular target: T1, Protein RecA (Escherichia coli (strain K12), UniProt P0A7G6)
T1 sequence (P0A7G6 whole entry): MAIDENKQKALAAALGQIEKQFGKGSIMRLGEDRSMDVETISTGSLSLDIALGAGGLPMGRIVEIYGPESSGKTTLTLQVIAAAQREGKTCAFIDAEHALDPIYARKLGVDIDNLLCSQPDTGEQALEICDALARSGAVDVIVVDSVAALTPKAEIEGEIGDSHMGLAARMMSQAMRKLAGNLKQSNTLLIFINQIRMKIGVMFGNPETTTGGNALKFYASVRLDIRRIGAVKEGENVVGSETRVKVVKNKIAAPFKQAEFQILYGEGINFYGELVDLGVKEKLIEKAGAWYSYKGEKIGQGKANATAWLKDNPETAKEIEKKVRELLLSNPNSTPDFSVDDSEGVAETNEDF
Experiment: In vitro apparent inhibition constant against Escherichia coli RecA protein

Ki: 46 µM
SMILES: O=P(O)(O)OP(=O)(O)OC[C@H]1O[C@@H](n2cnc3c(Nc4cccc5ccccc45)ncnc32)[C@H](O)[C@@H]1O
